The values below are quoted from earlier work in publication PMC3433420 (PLoS ONE, 2012).

In general, Kd refers to the free concentration of one partner at which half of the binding sites on the other are occupied at equilibrium, for simple one-to-one binding.

The target of the data set is SH2 and PTB domains. Particulars: most recent PM interactions, cited from earlier work. The source says:
Supplement pone.0044471.s022.xlsx, sheet "Most recent PM interactions" | column: Kd || Supplement pone.0044471.s022.xlsx, sheet "All original PM interactions" | column: Kd

The mark [1] stands for this setting: Protein ABL2, ref Jones et al. 2006 / Kaushansky et al. Mol Biosys 2008 / Kaushansky et al. Chem and Biol 2008.
The mark [2] stands for this setting: Protein CRK, ref Jones et al. 2006 / Kaushansky et al. Mol Biosys 2008 / Kaushansky et al. Chem and Biol 2008.
Setting [3] is: Protein RASA1-N, ref Jones et al. 2006 / Kaushansky et al. Mol Biosys 2008 / Kaushansky et al. Chem and Biol 2008.
Setting [4] is: Protein SHB, ref Jones et al. 2006 / Kaushansky et al. Mol Biosys 2008 / Kaushansky et al. Chem and Biol 2008.
[5] abbreviates: Protein SHC1-PTB, ref Jones et al. 2006 / Kaushansky et al. Mol Biosys 2008 / Kaushansky et al. Chem and Biol 2008.
Where [6] appears, read: Protein SYK-NC, ref Jones et al. 2006 / Kaushansky et al. Mol Biosys 2008 / Kaushansky et al. Chem and Biol 2008.

Like-named read-outs stand apart in the source and are kept apart here.

For the substance LPPDDKQLLpYSEAKTPI [ErbB3 868], the Kd runs as follows: (Protein ABL2, ref Jones et al. 2006 / Kaushansky et al. Chem and Biol 2008) 70 nM; (Protein BCAR3, ref Jones et al. 2006 / Kaushansky et al. Chem and Biol 2008) 1780 nM; (Protein CRKL, ref Jones et al. 2006 / Kaushansky et al. Chem and Biol 2008) 1760 nM; (Protein RASA1-N, ref Jones et al. 2006 / Kaushansky et al. Chem and Biol 2008) 950 nM; (Protein SYK-NC, ref Jones et al. 2006 / Kaushansky et al. Chem and Biol 2008) 920 nM.

With MDDVVDADEpYLIPQQGFd [ErbB1 1016], the Kd is, setting by setting: under setting [1], 280 nM; (Protein BLK, ref Jones et al. 2006 / Kaushansky et al. Mol Biosys 2008 / Kaushansky et al. Chem and Biol 2008) 660 nM; under setting [2], 470 nM; (Protein CRKL, ref Jones et al. 2006 / Kaushansky et al. Mol Biosys 2008 / Kaushansky et al. Chem and Biol 2008) 1000 nM; (Protein NCK1, ref Jones et al. 2006 / Kaushansky et al. Mol Biosys 2008 / Kaushansky et al. Chem and Biol 2008) 1000 nM; (Protein PIK3R1-C, ref Jones et al. 2006 / Kaushansky et al. Mol Biosys 2008 / Kaushansky et al. Chem and Biol 2008) 870 nM. The Kd (Protein PIK3R1-N, ref Jones et al. 2006 / Kaushansky et al. Mol Biosys 2008 / Kaushansky et al. Chem and Biol 2008) was 900 nM; the Kd (Protein PIK3R1-NC, ref Jones et al. 2006 / Kaushansky et al. Mol Biosys 2008 / Kaushansky et al. Chem and Biol 2008) is 180 nM; the Kd (Protein PIK3R2-N, ref Jones et al. 2006 / Kaushansky et al. Mol Biosys 2008 / Kaushansky et al. Chem and Biol 2008) is 420 nM; the Kd (Protein PIK3R2-NC, ref Jones et al. 2006 / Kaushansky et al. Mol Biosys 2008 / Kaushansky et al. Chem and Biol 2008) is 350 nM; the Kd (Protein PIK3R3-C, ref Jones et al. 2006 / Kaushansky et al. Mol Biosys 2008 / Kaushansky et al. Chem and Biol 2008) is 190 nM; the Kd (Protein PIK3R3-N, ref Jones et al. 2006 / Kaushansky et al. Mol Biosys 2008 / Kaushansky et al. Chem and Biol 2008) is 720 nM. The Kd is 200 nM (Protein PIK3R3-NC, ref Jones et al. 2006 / Kaushansky et al. Mol Biosys 2008 / Kaushansky et al. Chem and Biol 2008); 790 nM (Protein PLCG1-NC, ref Jones et al. 2006 / Kaushansky et al. Mol Biosys 2008 / Kaushansky et al. Chem and Biol 2008); 380 nM (Protein PTPN11-N, ref Jones et al. 2006 / Kaushansky et al. Mol Biosys 2008 / Kaushansky et al. Chem and Biol 2008); 490 nM under setting [3]; 1420 nM (Protein RASA1-NC, ref Jones et al. 2006 / Kaushansky et al. Mol Biosys 2008 / Kaushansky et al. Chem and Biol 2008); 1990 nM under setting [4]. In addition, the Kd is 630 nM under setting [5]; 660 nM (Protein SHC2-PTB, ref Jones et al. 2006 / Kaushansky et al. Mol Biosys 2008 / Kaushansky et al. Chem and Biol 2008); 220 nM (Protein SHC3, ref Jones et al. 2006 / Kaushansky et al. Mol Biosys 2008 / Kaushansky et al. Chem and Biol 2008); 930 nM (Protein SYK-C, ref Jones et al. 2006 / Kaushansky et al. Mol Biosys 2008 / Kaushansky et al. Chem and Biol 2008); 610 nM under setting [6]; 920 nM (Protein TNS4, ref Jones et al. 2006 / Kaushansky et al. Mol Biosys 2008 / Kaushansky et al. Chem and Biol 2008). Moreover, the Kd is, setting by setting: (Protein VAV1, ref Jones et al. 2006 / Kaushansky et al. Mol Biosys 2008 / Kaushansky et al. Chem and Biol 2008) 1050 nM; (Protein VAV2, ref Jones et al. 2006 / Kaushansky et al. Mol Biosys 2008 / Kaushansky et al. Chem and Biol 2008) 85 nM.

For the substance NPAPSRDPHpYQDPHSTAd [ErbB1 1125], the Kd is, setting by setting: under setting [1], 74 nM; (Protein BMX, ref Jones et al. 2006 / Kaushansky et al. Mol Biosys 2008 / Kaushansky et al. Chem and Biol 2008) 1070 nM; under setting [2], 1230 nM; under setting [3], 1320 nM; under setting [4], 990 nM; under setting [6], 980 nM. Moreover, the Kd (Protein TNS1, ref Jones et al. 2006 / Kaushansky et al. Mol Biosys 2008 / Kaushansky et al. Chem and Biol 2008) is 1280 nM; the Kd (Protein YES1, ref Jones et al. 2006 / Kaushansky et al. Mol Biosys 2008 / Kaushansky et al. Chem and Biol 2008) was 380 nM.

For the substance PAGSVQNPVpYHNQPLNPd [ErbB1 1110], the Kd is 520 nM (Protein ABL1, ref Jones et al. 2006 / Kaushansky et al. Mol Biosys 2008 / Kaushansky et al. Chem and Biol 2008); 60 nM under setting [1]; 320 nM under setting [5].
